The record followed here is US20060276464A1, “Diarylsulfone sulfonamides and use thereof” (Wyeth, priority 2005, published 2006).

This data set deals with T1, SFRP-1 (Homo sapiens, UniProt Q8N474).
T1 sequence (Q8N474 32-314): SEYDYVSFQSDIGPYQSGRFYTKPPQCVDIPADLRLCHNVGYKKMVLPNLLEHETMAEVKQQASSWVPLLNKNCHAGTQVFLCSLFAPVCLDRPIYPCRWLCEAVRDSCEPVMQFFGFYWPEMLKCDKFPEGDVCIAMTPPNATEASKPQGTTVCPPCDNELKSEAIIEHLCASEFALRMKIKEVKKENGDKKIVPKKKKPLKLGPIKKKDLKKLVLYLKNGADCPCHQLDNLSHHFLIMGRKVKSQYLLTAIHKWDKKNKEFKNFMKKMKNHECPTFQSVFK
Kind of data set: Cell-based assay for in vitro measurement of SFRP-1/SARP2 antagonist activity (U2OS cells co-transfected with 16x TCF-tk-Luciferase reporter, Wnt and hSFRP-1).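 For all read-outs here: U2OS cells co-transfected with a TCF-tk luciferase reporter, a Wnt vector, hSFRP-1 or empty vector and CMV-βgal, luciferase luminescence read in cell lysates alongside βgal activity.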 The following applies: for fold induction at 15 µM / fold induction at 20 µM: U2OS; for Fold Induction with SFRP-1: Conc 15 μM.

[1] abbreviates: read-out: Fold Induction with SFRP-1, Conc 15 μM, with SFRP-1, fold induction over SFRP-1 control, single dose.
The mark [2] stands for this setting: read-out: Fold Induction without SFRP-1, Conc 15 μM, without SFRP-1, single dose.
The mark [3] stands for this setting: with SFRP-1, fold induction over SFRP-1 control, single dose.
Where [4] appears, read: read-out: Fold Induction with SFRP-1, Conc 20 μM, with SFRP-1, fold induction over SFRP-1 control, single dose.
The mark [5] stands for this setting: read-out: Fold Induction without SFRP-1, Conc 20 μM, without SFRP-1, single dose.

The structures appear in SMILES notation. Where two headings read alike, the source gives them in different places.

Turning to `COc1ccc(S(=O)(=O)c2ccccc2)cc1S(=O)(=O)NCCc1c[nH]cn1` [Example 236, N-[2-(1H-imidazol-4-yl)ethyl]-2-methoxy-5-(phenylsulfonyl)benzenesulfonamide], the fold induction at 15 µM is 1.2 under setting [1] and 1 under setting [2].
As for `COc1ccc(S(=O)(=O)c2ccccc2)cc1S(=O)(=O)NCCN1CCOCC1` [Example 237, 2-methoxy-N-(2-morpholin-4-ylethyl)-5-(phenylsulfonyl)benzenesulfonamide], the “Fold Induction with SFRP-1” value under setting [3] is 1.4 fold. For the same compound, the fold induction at 15 µM runs as follows: under setting [1], 1.1; under setting [2], 0.9.
For `COCCCNS(=O)(=O)c1cc(S(=O)(=O)c2ccccc2)ccc1OC` [Example 238, 2-methoxy-N-(3-methoxypropyl)-5-(phenylsulfonyl)benzenesulfonamide], the fold induction at 15 µM under setting [1] turned out to be 1.3 and the fold induction at 15 µM under setting [2] was 0.9.
For `COc1ccc(S(=O)(=O)c2ccccc2)cc1S(=O)(=O)NCCCN(C)C` [Example 239, N-[3-(dimethylamino)propyl]-2-methoxy-5-(phenylsulfonyl)benzenesulfonamide], in that order: 1.2 and 1.
For `COCCNS(=O)(=O)c1cc(S(=O)(=O)c2ccccc2)ccc1OC` [Example 240, 2-methoxy-N-(2-methoxyethyl)-5-(phenylsulfonyl)benzenesulfonamide], in that order: 1.4 and 0.9.
For `CCN(CC)CCCNS(=O)(=O)c1cc(S(=O)(=O)c2ccccc2)ccc1OC` [Example 241, N-[3-(diethylamino)propyl]-2-methoxy-5-(phenylsulfonyl)benzenesulfonamide], in that order: 1.8 and 1.1.
Regarding `COc1ccc(S(=O)(=O)c2ccccc2)cc1S(=O)(=O)NCCCn1ccnc1` [Example 242, N-[3-(1H-imidazol-1-yl)propyl]-2-methoxy-5-(phenylsulfonyl)benzenesulfonamide], the fold induction at 15 µM came to 2.3 under setting [1] and 1.2 under setting [2].
For the compound `COc1ccc(S(=O)(=O)c2ccccc2)cc1S(=O)(=O)NCCCN1CCCC1` [Example 243, 2-methoxy-5-(phenylsulfonyl)-N-(3-pyrrolidin-1-ylpropyl)benzenesulfonamide], the fold induction at 15 µM was found to be 2.4 under setting [1] and 1.9 under setting [2].
The matching figures for `Cc1ccc(S(=O)(=O)c2ccccc2)cc1S(=O)(=O)NCCCc1ccccc1` [Example 244, 2-methyl-N-(3-phenylpropyl)-5-(phenylsulfonyl)benzenesulfonamide]: 1.3 and 1.1.
The matching figures for `CCc1ccc(S(=O)(=O)c2ccccc2)cc1S(=O)(=O)NCCCc1ccccc1` [Example 245, 2-ethyl-N-(3-phenylpropyl)-5-(phenylsulfonyl)benzenesulfonamide]: 1.9 and 1.2.
As for `Cc1ccc(S(=O)(=O)c2ccccc2)cc1S(=O)(=O)NC1Cc2ccccc2C1` [Example 246, N-2,3-dihydro-1H-inden-2-yl-2-methyl-5-(phenylsulfonyl)benzenesulfonamide], the fold induction at 20 µM was found to be 2.2 under setting [4] and 0.8 under setting [5].
The matching figures for `Cc1ccc(S(=O)(=O)c2ccccc2)cc1S(=O)(=O)N[C@H]1C[C@@H]1c1ccccc1` [Example 247, 2-methyl-N-[(1S,2R)-2-phenylcyclopropyl]-5-(phenylsulfonyl)benzenesulfonamide]: 1.7 and 0.9.
For `Cc1ccc(S(=O)(=O)c2ccccc2)cc1S(=O)(=O)NC[C@H](C)c1ccccc1` [Example 248, 2-methyl-N-[(2R)-2-phenylpropyl]-5-(phenylsulfonyl)benzenesulfonamide], in that order: 2.8 and 0.9.
For `Cc1ccc(S(=O)(=O)c2ccc(F)cc2)cc1S(=O)(=O)NC1Cc2ccccc2C1` [Example 249, N-2,3-dihydro-1H-inden-2-yl-5-[(4-fluorophenyl)sulfonyl]-2-methylbenzenesulfonamide], in that order: 1.9 and 0.8.
Take `Cc1ccc(S(=O)(=O)c2ccc(F)cc2)cc1S(=O)(=O)N[C@H]1C[C@@H]1c1ccccc1` [Example 250, 5-[(4-fluorophenyl)sulfonyl]-2-methyl-N-[(1S,2R)-2-phenylcyclopropyl]benzenesulfonamide]: the fold induction at 20 µM was determined as 1.4 under setting [4] and 0.9 under setting [5].
For `Cc1ccc(S(=O)(=O)c2ccc(F)cc2)cc1S(=O)(=O)NC[C@H](C)c1ccccc1` [Example 251, 5-[(4-fluorophenyl)sulfonyl]-2-methyl-N-[(2R)-2-phenylpropyl]benzenesulfonamide], in that order: 3 and 0.8.
As to `Cc1ccc(S(=O)(=O)c2ccc(C)c(S(=O)(=O)NC3Cc4ccccc4C3)c2)cc1` [Example 252, N-2,3-dihydro-1H-inden-2-yl-2-methyl-5-[(4-methylphenyl)sulfonyl]benzenesulfonamide], the fold induction at 20 µM reads like this: under setting [4], 2.6; under setting [5], 1.
On to `Cc1ccc(S(=O)(=O)c2ccc(C)c(S(=O)(=O)N[C@H]3C[C@@H]3c3ccccc3)c2)cc1` [Example 253, 2-methyl-5-[(4-methylphenyl)sulfonyl]-N-[(1S,2R)-2-phenylcyclopropyl]benzenesulfonamide], for which the fold induction at 20 µM runs as follows: under setting [4], 1.4; under setting [5], 0.9.
For `Cc1ccc(S(=O)(=O)c2ccc(C)c(S(=O)(=O)NC[C@H](C)c3ccccc3)c2)cc1` [Example 254, 2-methyl-5-[(4-methylphenyl)sulfonyl]-N-[(2R)-2-phenylpropyl]benzenesulfonamide], in that order: 3 and 1.
Take `Cc1ccc(S(=O)(=O)c2ccc(Cl)cc2)cc1S(=O)(=O)NC1Cc2ccccc2C1` [Example 255, 5-[(4-chlorophenyl)sulfonyl]-N-2,3-dihydro-1H-inden-2-yl-2-methylbenzenesulfonamide]: the fold induction at 20 µM is 2.6 under setting [4] and 1.1 under setting [5].
The matching figures for `Cc1ccc(S(=O)(=O)c2ccc(Cl)cc2)cc1S(=O)(=O)N[C@H]1C[C@@H]1c1ccccc1` [Example 256, 5-[(4-chlorophenyl)sulfonyl]-2-methyl-N-[(1S,2R)-2-phenylcyclopropyl]benzenesulfonamide]: 1.2 and 1.
The matching figures for `Cc1ccc(S(=O)(=O)c2ccc(Cl)cc2)cc1S(=O)(=O)NC[C@H](C)c1ccccc1` [Example 257, 5-[(4-chlorophenyl)sulfonyl]-2-methyl-N-[(2R)-2-phenylpropyl]benzenesulfonamide]: 2.4 and 1.
The matching figures for `O=S(=O)(NC1Cc2ccccc2C1)c1cccc(S(=O)(=O)c2ccccc2)c1` [Example 258, N-2,3-dihydro-1H-inden-2-yl-3-(phenylsulfonyl)benzenesulfonamide]: 1.2 and 1.
In the case of `O=S(=O)(N[C@H]1C[C@@H]1c1ccccc1)c1cccc(S(=O)(=O)c2ccccc2)c1` [Example 259, N-[(1S,2R)-2-phenylcyclopropyl]-3-(phenylsulfonyl)benzenesulfonamide], the fold induction at 20 µM came to 1 under setting [4] and 1.1 under setting [5].
The matching figures for `C[C@@H](CNS(=O)(=O)c1cccc(S(=O)(=O)c2ccccc2)c1)c1ccccc1` [Example 260, N-[(2R)-2-phenylpropyl]-3-(phenylsulfonyl)benzenesulfonamide]: 1.2 and 1.
`Cc1ccc(S(=O)(=O)c2ccc(F)cc2)cc1S(=O)(=O)NC[C@@H](C)c1ccccc1` [Example 261, 5-[(4-fluorophenyl)sulfonyl]-2-methyl-N-[(2S)-2-phenylpropyl]benzenesulfonamide]: the fold induction at 15 µM by setting is: under setting [1], 1.4; under setting [2], 0.9.
As to `Cc1ccc(S(=O)(=O)c2ccccc2)cc1S(=O)(=O)NC[C@@H](C)c1ccccc1` [Example 262, 2-methyl-N-[(2S)-2-phenylpropyl]-5-(phenylsulfonyl)benzenesulfonamide], the fold induction at 15 µM runs as follows: under setting [1], 1.6; under setting [2], 1.1.
For `C[C@H](CNS(=O)(=O)c1cccc(S(=O)(=O)c2ccccc2)c1)c1ccccc1` [Example 263, N-[(2S)-2-phenylpropyl]-3-(phenylsulfonyl)benzenesulfonamide], in that order: 0.8 and 1.1.
In the case of `Cc1ccc(S(=O)(=O)c2ccc(C)c(S(=O)(=O)NC[C@@H](C)c3ccccc3)c2)cc1` [Example 264, 2-methyl-5-[(4-methylphenyl)sulfonyl]-N-[(2S)-2-phenylpropyl]benzenesulfonamide], the “Fold Induction with SFRP-1” value under setting [3] came to 1.7 fold. The fold induction at 15 µM is, setting by setting: under setting [1], 1.1; under setting [2], 0.9.
